Measurements taken from patent US20260042764A1, “COMPOSITIONS AND METHODS FOR INHIBITION OF KRAS” (TheRas, Inc., priority 2022, published 2026).

What was measured:
[1] = biological target: T1, Avi-KRAS G12V (1-169) GppNHp/RAF1 RBD-3xFLAG (52-151) (Homo sapiens, UniProt P01116, G12V); assay: Raf1-KRAS G12V-GppNHP disruption HTRF assay (Biological Example 1); format: binding; conditions: KRAS G12V, GppNHp-loaded; Table 11
T1 construct: Avi-KRAS G12V (1-169)
How it was run: (§1)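 Using HTRF, the loss of KRAS–effector RAF1 complex was quantified in 50 mM Tris pH 7.5 buffer with 100 mM NaCl and 0.1% BSA. The protein step and reagent step ran 1 h each at room temperature. Activity normalized with DMSO taken as 100%.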

[2] = biological target: T2, Avi-KRAS G12R (1-169) GppNHp/RAF1 RBD-3xFLAG (52-151) (Homo sapiens, UniProt P01116, G12R); assay: Raf1-KRAS G12R-GppNHP disruption HTRF assay (Biological Example 1); format: binding; conditions: KRAS G12R, GppNHp-loaded; Table 11
T2 construct: Avi-KRAS G12R (1-169)
Procedure: A protein:protein interaction (PPI) Homogeneous Time Resolved Fluorescence (HTRF) assay was used to determine the effectiveness of compounds of the present disclosure in disrupting KRAS protein and effector RAF1 binding.
The assay buffer included: 50 mM Tris pH 7.5, 100 mM NaCl, 5 mM MgCl2, 0.1% BSA, 0.01% Tween, and 10% DMSO. The bead buffer included: 50 mM Tris pH 7.5, and 0.01% Tween 20. Assay volume of 20 μL was used in a 384 well plate-low volume format.
The HTRF assay employed the following protocol:
Protein mix was prepared in assay buffer, and dispensed on plates, 10 μL per well, then incubated for 1 h at room temperature, with 700 rpm shaking, Reagents mix was prepared and dispensed on plates, 10 μL per well, then incubated for 1 h at room temperature, with 700 rpm shaking.
Data was reported as percentage of activity, with DMSO as 100%. Data was plotted and analyzed using Prism 8.

[3] = biological target: T3, Avi-KRAS G12D (1-169) GppNHp/RAF1 RBD-3xFLAG (52-151) (Homo sapiens, UniProt P01116, G12D); assay: Raf1-KRAS G12D-GppNHP disruption HTRF assay (Biological Example 1); format: binding; conditions: KRAS G12D, GppNHp-loaded; Table 11
T3 construct: Avi-KRAS G12D (1-169)
How it was run: as §1

GP2d cells (KRAS G12D) = assay: Cell-based pERK HTRF assay in GP2d cell (Biological Example 2); conditions: GP2d (KRAS G12D) cells, pERK HTRF
How it was run: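 Treatment with test compounds lasted one hour in DMEM containing 10% FBS, with DMSO held at 0.25%. Dilution series: 9 points, half-log spacing, highest 1 μM or 100 nM. Lysates were incubated 4–24 h at room temperature with antibody mix, then HTRF was read at 320 nm excitation.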

[4] = biological target: T4, Avi-KRAS WT (1-169) GppNHp/RAF1 RBD-3xFLAG (52-151) (Homo sapiens, UniProt P01116); assay: Raf1-KRAS WT-GppNHP disruption HTRF assay (Biological Example 1); format: binding; conditions: KRAS WT, GppNHp-loaded; Table 11
T4 construct: Avi-KRAS WT (1-169)
How it was run: as §1

T4 sequence (P01116 1-169 isoform P01116-2): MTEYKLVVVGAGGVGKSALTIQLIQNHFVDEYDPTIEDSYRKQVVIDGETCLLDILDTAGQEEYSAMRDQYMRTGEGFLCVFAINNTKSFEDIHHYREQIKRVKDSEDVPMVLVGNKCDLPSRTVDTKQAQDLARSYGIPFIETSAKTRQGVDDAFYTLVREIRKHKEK
T1 sequence (P01116 1-169 isoform P01116-2 G12V): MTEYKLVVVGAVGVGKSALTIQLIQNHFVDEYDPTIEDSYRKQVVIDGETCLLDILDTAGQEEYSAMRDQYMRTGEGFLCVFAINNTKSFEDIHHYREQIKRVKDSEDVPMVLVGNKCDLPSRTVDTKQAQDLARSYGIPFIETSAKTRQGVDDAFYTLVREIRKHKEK
T3 sequence (P01116 1-169 isoform P01116-2 G12D): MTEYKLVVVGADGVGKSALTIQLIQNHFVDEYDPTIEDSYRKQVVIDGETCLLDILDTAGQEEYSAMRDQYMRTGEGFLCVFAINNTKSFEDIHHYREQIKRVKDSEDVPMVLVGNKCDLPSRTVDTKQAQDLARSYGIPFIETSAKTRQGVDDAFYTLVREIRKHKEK
T2 sequence (P01116 1-169 isoform P01116-2 G12R): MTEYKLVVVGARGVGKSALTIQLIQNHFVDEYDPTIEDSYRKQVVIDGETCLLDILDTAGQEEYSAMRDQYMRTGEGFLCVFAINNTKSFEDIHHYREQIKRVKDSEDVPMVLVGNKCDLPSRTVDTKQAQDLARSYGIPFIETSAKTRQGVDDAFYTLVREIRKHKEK

CN(c1nc(OC[C@@]23CCCN2C[C@H](F)C3)nc2c(F)c(-c3ccc(F)c4sc(N)c(C#N)c34)c(C(F)(F)F)cc12)[C@H]1C[C@@](C)(O)C1 [Compound 31, 2-amino-7-fluoro-4-(8-fluoro-2-(((2R,7aS)-2-fluorotetrahydro-1H-pyrrolizin-7a(5H)-yl)methoxy)-4-(((1s,3R)-3-hydroxy-3-methylcyclobutyl)(methyl)amino)-6-(trifluoromethyl)quinazolin-7-yl)benzo[b]thiophene-3-carbonitrile]
IC50 [1]: 1000 to 10000 nM
IC50 [2]: 100 to 1000 nM
IC50 [3]: 100 to 1000 nM
IC50 (GP2d cells (KRAS G12D); GP2d): < 100 nM
IC50 [4]: 100 to 1000 nM

CN(c1nc(OC[C@@]23CCCN2C[C@H](F)C3)nc2c(F)c(-c3ccc(F)c4sc(N)c(C#N)c34)c(C#N)cc12)[C@H]1C[C@@H](O)C1 [Compound 32, 7-(2-amino-3-cyano-7-fluoro-benzothiophen-4-yl)-8-fluoro-2-[[(2R,8S)-2-fluoro-1,2,3,5,6,7-hexahydropyrrolizin-8-yl]methoxy]-4-[(3-hydroxycyclobutyl)-methyl-amino]quinazoline-6-carbonitrile]
IC50 [1]: 1000 to 10000 nM
IC50 [2]: 100 to 1000 nM
IC50 [3]: 100 to 1000 nM
IC50 (GP2d cells (KRAS G12D); GP2d): 100 to 1000 nM
IC50 [4]: 100 to 1000 nM

CN(c1nc(OC[C@@]23CCCN2C[C@H](F)C3)nc2cc(-c3ccc(F)c4sc(N)c(C#N)c34)c(C(F)(F)F)cc12)[C@H]1C[C@@H](O)C1 [Compound 33]
IC50 [1]: 100 to 1000 nM
IC50 [2]: 100 to 1000 nM
IC50 [3]: 100 to 1000 nM
IC50 (GP2d cells (KRAS G12D); GP2d): 100 to 1000 nM
IC50 [4]: 100 to 1000 nM

CN1CCC[C@H]1COc1nc(N(C)[C@H]2C[C@@H](O)C2)c2cc(C(F)(F)F)c(-c3ccc(F)c4sc(N)c(C#N)c34)c(F)c2n1 [Compound 35]
IC50 [1]: 100 to 1000 nM
IC50 [2]: 100 to 1000 nM
IC50 [3]: 100 to 1000 nM
IC50 (GP2d cells (KRAS G12D); GP2d): < 100 nM
IC50 [4]: 100 to 1000 nM

CN(c1nc(OC[C@@]23CCCN2C[C@H](F)C3)nc2c(F)c(-c3ccc(F)c4sc(N)c(C#N)c34)c(C(F)(F)F)cc12)[C@@H]1C[C@H](O)[C@@H]1CO [Compound 37]
IC50 [1]: 100 to 1000 nM
IC50 [2]: < 100 nM
IC50 [3]: < 100 nM
IC50 (GP2d cells (KRAS G12D); GP2d): < 100 nM
IC50 [4]: < 100 nM

CO[C@@H]1C[C@@H](COc2nc(N(C)C3CC(O)C3)c3cc(C(F)(F)F)c(-c4ccc(F)c5sc(N)c(C#N)c45)c(F)c3n2)N(C)C1 (stereo partly drawn) [Compound 40]
IC50 [1]: 100 to 1000 nM
IC50 [2]: 100 to 1000 nM
IC50 [3]: 100 to 1000 nM
IC50 (GP2d cells (KRAS G12D); GP2d): < 100 nM
IC50 [4]: 100 to 1000 nM

CN(c1nc(OC[C@@H]2CC3(CC3)CN2C)nc2c(F)c(-c3ccc(F)c4sc(N)c(C#N)c34)c(C(F)(F)F)cc12)C1CC(O)C1 (stereo partly drawn) [Compound 41]
IC50 [1]: 100 to 1000 nM
IC50 [2]: 100 to 1000 nM
IC50 [3]: 100 to 1000 nM
IC50 (GP2d cells (KRAS G12D); GP2d): < 100 nM
IC50 [4]: 100 to 1000 nM

N#Cc1c(N)sc2c(F)ccc(-c3c(C(F)(F)F)cc4c(N5CCC(CO)CC5)nc(OC[C@@]56CCCN5C[C@H](F)C6)nc4c3F)c12 [Compound 44, 2-amino-7-fluoro-4-(8-fluoro-2-(((2R,7aS)-2-fluorotetrahydro-1H-pyrrolizin-7a(5H)-yl)methoxy)-4-(4-(hydroxymethyl)piperidin-1-yl)-6-(trifluoromethyl)quinazolin-7-yl)benzo[b]thiophene-3-carbonitrile]
IC50 [1]: 100 to 1000 nM
IC50 [2]: 100 to 1000 nM
IC50 [3]: 100 to 1000 nM
IC50 (GP2d cells (KRAS G12D); GP2d): < 100 nM
IC50 [4]: 100 to 1000 nM

N#Cc1c(N)sc2c(F)ccc(-c3c(C(F)(F)F)cc4c(N5CCC6(CC5)CC(O)C6)nc(OC[C@@]56CCCN5C[C@H](F)C6)nc4c3F)c12 [Compound 45]
IC50 [1]: 100 to 1000 nM
IC50 [2]: 100 to 1000 nM
IC50 [3]: 100 to 1000 nM
IC50 (GP2d cells (KRAS G12D); GP2d): 100 to 1000 nM
IC50 [4]: 100 to 1000 nM

N#Cc1c(N)sc2c(F)ccc(-c3c(C(F)(F)F)cc4c(N5CC6CCC(C5)C6CO)nc(OC[C@@]56CCCN5C[C@H](F)C6)nc4c3F)c12 (stereo partly drawn) [Compound 47]
IC50 [1]: 100 to 1000 nM
IC50 [2]: 100 to 1000 nM
IC50 [3]: < 100 nM
IC50 (GP2d cells (KRAS G12D); GP2d): < 100 nM
IC50 [4]: 100 to 1000 nM

CC1(CO)CCN(c2nc(OCC34CCCN3CC(F)C4)nc3c(F)c(-c4ccc(F)c5sc(N)c(C#N)c45)c(C(F)(F)F)cc23)CC1 (stereo not drawn) [Compound 48]
IC50 [1]: 100 to 1000 nM
IC50 [2]: 100 to 1000 nM
IC50 [3]: 100 to 1000 nM
IC50 (GP2d cells (KRAS G12D); GP2d): < 100 nM
IC50 [4]: 100 to 1000 nM

C[C@@H](O)C1CCN(c2nc(OC[C@@]34CCCN3C[C@H](F)C4)nc3c(F)c(-c4ccc(F)c5sc(N)c(C#N)c45)c(C(F)(F)F)cc23)CC1 [Compound 49]
IC50 [1]: 100 to 1000 nM
IC50 [2]: 100 to 1000 nM
IC50 [3]: < 100 nM
IC50 (GP2d cells (KRAS G12D); GP2d): < 100 nM
IC50 [4]: 100 to 1000 nM

C[C@H](O)C1CCN(c2nc(OC[C@@]34CCCN3C[C@H](F)C4)nc3c(F)c(-c4ccc(F)c5sc(N)c(C#N)c45)c(C(F)(F)F)cc23)CC1 [Compound 50]
IC50 [1]: 1000 to 10000 nM
IC50 [2]: 1000 to 10000 nM
IC50 [3]: 100 to 1000 nM
IC50 (GP2d cells (KRAS G12D); GP2d): 100 to 1000 nM
IC50 [4]: 100 to 1000 nM

CN(c1nc(OC[C@@]23CCCN2C[C@H](F)C3)nc2c(F)c(-c3ccc(F)c4sc(N)c(C#N)c34)c(C(F)(F)F)cc12)C1CCC(O)CC1 (stereo partly drawn) [Compound 65]
IC50 [1]: 100 to 1000 nM
IC50 [2]: 100 to 1000 nM
IC50 [3]: 100 to 1000 nM
IC50 (GP2d cells (KRAS G12D); GP2d): < 100 nM
IC50 [4]: 100 to 1000 nM

CN(c1nc(OC[C@@]23CCCN2C[C@H](F)C3)nc2c(F)c(-c3ccc(F)c4sc(N)c(C#N)c34)c(C(F)(F)F)cc12)C1CCC(O)CC1 (stereo partly drawn) [Compound 66]
IC50 [1]: 100 to 1000 nM
IC50 [2]: 100 to 1000 nM
IC50 [3]: 100 to 1000 nM
IC50 (GP2d cells (KRAS G12D)): 100 to 1000 nM
IC50 [4]: 100 to 1000 nM

CN(CCO)c1nc(OC[C@@]23CCCN2C[C@H](F)C3)nc2c(F)c(-c3ccc(F)c4sc(N)c(C#N)c34)c(C(F)(F)F)cc12 [Compound 70, 2-amino-7-fluoro-4-(8-fluoro-2-(((2R,7aS)-2-fluorotetrahydro-1H-pyrrolizin-7a(5H)-yl)methoxy)-4-((2-hydroxyethyl)(methyl)amino)-6-(trifluoromethyl)quinazolin-7-yl)benzo[b]thiophene-3-carbonitrile]
IC50 [1]: 100 to 1000 nM
IC50 [2]: 100 to 1000 nM
IC50 [3]: < 100 nM
IC50 (GP2d cells (KRAS G12D); GP2d): < 100 nM
IC50 [4]: 100 to 1000 nM

C[C@@H](O)CN(C)c1nc(OC[C@@]23CCCN2C[C@H](F)C3)nc2c(F)c(-c3ccc(F)c4sc(N)c(C#N)c34)c(C(F)(F)F)cc12 [Compound 71]
IC50 [1]: 100 to 1000 nM
IC50 [2]: 100 to 1000 nM
IC50 [3]: < 100 nM
IC50 (GP2d cells (KRAS G12D); GP2d): < 100 nM
IC50 [4]: 100 to 1000 nM

C[C@H](O)CN(C)c1nc(OC[C@@]23CCCN2C[C@H](F)C3)nc2c(F)c(-c3ccc(F)c4sc(N)c(C#N)c34)c(C(F)(F)F)cc12 [Compound 72]
IC50 [1]: 100 to 1000 nM
IC50 [2]: 100 to 1000 nM
IC50 [3]: < 100 nM
IC50 (GP2d cells (KRAS G12D); GP2d): < 100 nM
IC50 [4]: 100 to 1000 nM

CN(CCCO)c1nc(OC[C@@]23CCCN2C[C@H](F)C3)nc2c(F)c(-c3ccc(F)c4sc(N)c(C#N)c34)c(C(F)(F)F)cc12 [Compound 73]
IC50 [1]: 100 to 1000 nM
IC50 [2]: 100 to 1000 nM
IC50 [3]: 100 to 1000 nM
IC50 (GP2d cells (KRAS G12D); GP2d): < 100 nM
IC50 [4]: 100 to 1000 nM

CCN(CCO)c1nc(OC[C@@]23CCCN2C[C@H](F)C3)nc2c(F)c(-c3ccc(F)c4sc(N)c(C#N)c34)c(C(F)(F)F)cc12 [Compound 74]
IC50 [1]: < 100 nM
IC50 [2]: < 100 nM
IC50 [3]: < 100 nM
IC50 (GP2d cells (KRAS G12D); GP2d): < 100 nM
IC50 [4]: < 100 nM

C[C@H](CO)N(C)c1nc(OC[C@@]23CCCN2C[C@H](F)C3)nc2c(F)c(-c3ccc(F)c4sc(N)c(C#N)c34)c(C(F)(F)F)cc12 [Compound 76]
IC50 [1]: 100 to 1000 nM
IC50 [2]: 100 to 1000 nM
IC50 [3]: < 100 nM
IC50 (GP2d cells (KRAS G12D); GP2d): < 100 nM
IC50 [4]: 100 to 1000 nM
